Results as given in article PMC8951016, “Computational Design and Biological Evaluation of Analogs of Lupin Peptide P5 Endowed with Dual PCSK9/HMG-CoAR Inhibiting Activity” (Pharmaceutics, 2022).

How the values were obtained:
LDL uptake, HepG2 cells [1] = conditions: cited from earlier work
[2] = system: LDLR on HepG2 cell surface; conditions: cellular level; cited from earlier work
[3] = target: T1, HMG-CoAR (catalytic domain) (Homo sapiens, UniProt P04035); conditions: cited from earlier work
T1 construct: finally the HMG-CoAR (cata- lytic domain) (2 µL); purchased Sigma-Aldrich
T1 sequence (P04035 426-888 limits assumed): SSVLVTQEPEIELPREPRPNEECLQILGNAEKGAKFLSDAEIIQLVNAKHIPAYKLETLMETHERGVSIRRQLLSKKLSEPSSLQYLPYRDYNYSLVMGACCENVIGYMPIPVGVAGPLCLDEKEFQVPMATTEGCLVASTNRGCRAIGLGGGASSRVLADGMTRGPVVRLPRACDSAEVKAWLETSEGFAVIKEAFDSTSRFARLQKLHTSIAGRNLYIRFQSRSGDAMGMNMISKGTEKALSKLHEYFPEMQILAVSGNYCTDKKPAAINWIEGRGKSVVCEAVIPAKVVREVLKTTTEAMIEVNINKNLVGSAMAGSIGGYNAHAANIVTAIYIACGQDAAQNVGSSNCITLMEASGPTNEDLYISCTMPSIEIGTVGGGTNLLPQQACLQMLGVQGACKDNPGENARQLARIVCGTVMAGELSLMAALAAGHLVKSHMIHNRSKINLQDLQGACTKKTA

LDLR = system: LDLR; set-up: method as in 3 sources, ref 48 = [48]; doi:10.1111/jfbc.12757; 48. Lammi C. Zanoni C. Arnoldi A. Aiello G. […] (P3), a peptide from lupin protein, absorbed by Caco-2 cells, modulates cholesterol metabolism in HepG2 cells via SREBP-1 activation J. Food B ||| ref 22 = [22]; doi:10.1016/j.jff.2017.02.009; 22. Zanoni C. Aiello G. Arnoldi A. Lammi C. Investigations on the hypocholesterolaemic activity of […] and LTFPGSAED, two peptides from lupin β-conglutin: Focus on LDLR and PCSK9 pathways J. Fu ||| ref 24 = [24]; PMID 33808034; doi:10.3390/nu13030863; 24. Lammi C. Aiello G. Bollati C. Li J. Bartolomei M. Ranaldi G. Ferruzza S. Fassi E.M.A. Grazioso G. Sambuy Y. Trans-Epithelial Transport, Metabolism, and Biological Activity Assessment of the Multi-; conditions: via compensatory upregulation of SREBP-1; cited from earlier work
SREBP-2 = conditions: cited from earlier work
Protocol: Further experiments were performed to verify the ability of these P5 analogs to modulate the LDLR pathway in HepG2 cells.

LDL uptake, HepG2 cells [4] = experiment: Fluorescent LDL uptake in HepG2 cells in the presence of PCSK9; assay type: cell-based, human; conditions: PCSK9 4 μg/mL, 2 h; vs untreated control cells; p < 0.05
Protocol: HepG2 cells (3 × 10^4/well) were seeded in 96-well plates and kept in complete growth medium for 2 days before treatment. The third day, cells were washed with PBS and then starved overnight (O/N) in DMEM without FBS and antibiotics. After starvation, they were treated with 4.0 μg/mL PCSK9 and 4.0 μg/mL PCSK9 + P5 and P5 analogs peptides (50 µM), and vehicle (H2O) for 2 h with at 37 °C under 5% CO2 atmosphere. Fluorescent LDL-uptake was finally assessed following optimized protocol. See Supplementary Materials for further details.
PBS for 1.5 h at RT. LDLR primary antibody solution (1:3000 in 5% BSA in PBS, 25 µL/well) was incubated O/N at +4 °C. […] The reaction was stopped with 2 M H2SO4 and then the absorbance at 450 nm was measured using the microplate reader Synergy H1 (Winoo-ski, VT, USA). After the read, cells were stained by adding 1 X Janus Green stain, incubat-ing for 5 min at RT. […]
Afterward 100 µL 0.5 M HCl for well were added and incubated for 10 min. After 10 sec-onds shaking, the OD at 595 nm was measured using the microplate reader Synergy H1 […]
Fluorescent LDL Uptake. […] The degree of LDL uptake was measured using the Synergy H1 fluo-rescent plate reader (Winooski, VT, USA) (excitation and emission wavelengths 540 and 570 nm, respectively). Fluorescent LDL-uptake was finally assessed following optimized […]

[5] = system: LDLR on HepG2 cell surface; experiment: In-cell western (ICW), LDLR on HepG2 surface in the presence of PCSK9; assay type: cell-based, human; conditions: PCSK9 4 μg/mL, 2 h; vs untreated control cells; p < 0.001
Protocol: For the experiments, a total of 3 × 10^4 HepG2 cells/well were seeded in 96-well plates and treated with 4.0 μg/mL PCSK9-WT and 4.0 μg/mL PCSK9 + peptides P5 and/or P5 analogs (50 µM) and vehicle (H2O) for 2 h at 37 °C under 5% CO2 atmosphere. Thus, cells underwent to ICW assay following conditions already optimized. See Supplementary Materials for detailed information. […]
cLex Co., Nagano, Japan). The peptides (P5, P5-Best, P-H6A, and P5-S7A) were synthe-sized by the company GeneScript (Piscataway, NJ, USA) at >95% purity. The antibody against HMG-CoAR was bought from Abcam (Cambridge, UK). […]
HMG-CoAR Aactivity Assay. […] Subsequently, the samples were mixed and the absorbance at 340 nm read by the microplate reader Synergy H1 (Winooski, VT, USA) at time 0 and 10 min. The HMG-CoAR-dependent oxidation of NADPH and the inhibition properties of peptides were measured by absorbance reduction, which is directly proportional to enzyme activ- […]
In Vitro PCSK9-LDLR Binding Assay. […] The reaction was stopped with 2.0 M sulfuric acid and the absorbance at 450nm was measured using the Synergy H1 fluorescent plate reader […]

PCSK9 = system: PCSK9; set-up: method as in 3 sources, ref 49 = [49]; PMID 35011066; doi:10.3390/nu14010193; 49. Macchi C. Greco M.F. Ferri N. Magni P. Arnoldi A. Corsini A. Sirtori C.R. Ruscica M. Lammi C. Impact of Soy β-Conglycinin Peptides on PCSK9 Protein Expression in HepG2 Cells Nutrients 2021 14 193 ||| ref 22 = [22]; doi:10.1016/j.jff.2017.02.009; 22. Zanoni C. Aiello G. Arnoldi A. Lammi C. Investigations on the hypocholesterolaemic activity of […] and LTFPGSAED, two peptides from lupin β-conglutin: Focus on LDLR and PCSK9 pathways J. Fu ||| ref 24 = [24]; PMID 33808034; doi:10.3390/nu13030863; 24. Lammi C. Aiello G. Bollati C. Li J. Bartolomei M. Ranaldi G. Ferruzza S. Fassi E.M.A. Grazioso G. Sambuy Y. Trans-Epithelial Transport, Metabolism, and Biological Activity Assessment of the Multi-; conditions: 250 µM, via modulation of HNF1-α; cited from earlier work
mature PCSK9 (secreted) = system: mature PCSK9 (secreted); set-up: method as in PMID 35011066; conditions: 250 µM, via modulation of HNF1-α; cited from earlier work

Substance: TVFTSWEEYLDWV [Pep2-8]
- restoration of hepatocyte LDL absorption vs P5 analogs (LDL uptake, HepG2 cells [1]): less efficient than P5 analogs
- restoration of LDLR protein levels vs P5 analogs [2]: less efficient than P5 analogs

Substance: YDFYPSSTKDQQS [Peptide P3, a peptide from lupin protein]
- HMG-CoAR activity (P3, words) [3]: inhibits HMG-CoAR activity
- LDLR protein levels (P3, words) (LDLR): increase in the LDLR protein levels
- SREBP-2 activation (P3, words) (SREBP-2): without SREBP-2 activation

Substance: PCSK9: PCSK9 added at 4 µg/mL to HepG2 cells
- reduction in uptake of fluorescent LDL by PCSK9 alone (LDL uptake, HepG2 cells [4]): 43.6 ± 9.6%
- decrease of LDLR level by PCSK9 alone [5]: 25.4 ± 1.6%

Substance: YVVNPDNNEN [peptide from soybean β-Conglycinin]
- HMG-CoAR inhibition (YVVNPDNNEN, words) [3]: able to inhibit the HMG-CoAR activity
- PCSK9 protein level (YVVNPDNNEN, words) (PCSK9): reduces the PCSK9 protein level
- PCSK9 secretion (YVVNPDNNEN, words) (mature PCSK9 (secreted)): reduces the PCSK9 protein level and its secretion
